Experimental findings from patent publication US9803223B2, “Coryneform bacterium transformant with improved aniline productivity and process for producing aniline using the same” (RESEARCH INSTITUTE OF INNOVATIVE TECHNOLOGY FOR THE EARTH, priority 2013, dated 2017) are described below.

The test system of one assay is Escherichia coli HST02. Put plainly: Growth inhibition experiment in aerobic culture, influence of aniline. Format: cell-based. The conditions noted are these: for growth of Escherichia coli HST02: aerobic culture 37° C., OD610. The method, then: A growth inhibition experiment in aerobic culture was performed to examine the influence of aniline on Escherichia coli.
Escherichia coli HST02 was applied to LB agar medium (1% polypeptone, 0.5% yeast extract, 0.5% NaCl and 1.5% agar) and was left stand in the dark at 37° C. for 15 hours.
An inoculation loop of the Escherichia coli HST02 grown on a plate as above was inoculated into a test tube containing 10 mL of LB liquid medium (1% polypeptone, 0.5% yeast extract, and 0.5% NaCl), and aerobic culture was performed with shaking at 37° C. for 13 hours.
The Escherichia coli HST02 grown in the above conditions was inoculated into 100 mL of LB liquid medium in such a way that the initial bacterial cell concentration would be OD610=0.1, aniline was added at the same time in such a way that the final concentration would be 0, 20, 40, 60, or 80 mM, and aerobic culture was performed with shaking at 37° C. The growth of the bacterial cells was determined by absorbance measurement at OD610. […] The vertical axis of FIG. 2 indicates OD610.

Assay [1] concerns Corynebacterium glutamicum R. Description: Influence of aniline addition on aerobic growth. The class given is cell-based. The conditions noted are these: for growth of Corynebacterium glutamicum: aerobic culture 33° C., OD610. As for the experimental part:
Corynebacterium glutamicum R was applied to A agar medium (2 g of (NH2)2CO3 7 g of (NH4)2SO4, 0.5 g of KH2PO4, 0.5 g of K2HPO4, 0.5 g of MgSO4.7H2O, 1 mL of 0.06% (w/v) Fe2SO4.7H2O+0.042% (w/v) MnSO4.2H2O, 1 mL of 0.02% (w/v) biotin solution, 2 mL of 0.01% (w/v) thiamin solution, 2 g of yeast extract, 7 g of vitamin assay casamino acid, 40 g of glucose, and 15 g of agar were suspended in 1 L of distilled water) and was left stand in the dark at 33° C. for 15 hours.
An inoculation loop of the Corynebacterium glutamicum R grown on a plate as above was inoculated into a test tube containing 10 mL of A liquid medium (2 g of (NH2)2CO3 7 g of (NH4)2SO4, 0.5 g of KH2PO4, 0.5 g of K2HPO4, 0.5 g of MgSO4.7H2O, 1 mL of 0.06% (w/v) Fe2SO4.7H2O+0.042% (w/v) MnSO4.2H2O, 1 mL of 0.02% (w/v) biotin solution, 2 mL of 0.01% (w/v) thiamin solution, 2 g of yeast extract, 7 g of vitamin assay casamino acid, and 40 g of glucose were suspended in 1 L of distilled water) and was aerobically cultured with shaking at 33° C. for 15 hours.
The Corynebacterium glutamicum R grown in the above conditions was inoculated into 10 mL of A liquid medium in such a way that the initial bacterial cell concentration would be OD610=0.1, aniline was added at the same time in such a way that the final concentration would be 0, 20, 40, 60, or 80 mM, and aerobic culture was performed with shaking at 33° C. The growth of the bacterial cells was determined by absorbance measurement at OD610.
The vertical axis of FIG. 3 indicates OD610.

Entries after “also recorded” stand apart in the source; their conditions may differ.

`Nc1ccccc1` [aniline]: the figures for the “growth of Escherichia coli HST02” value in the assay with Escherichia coli HST02 (20 mM aniline), in the assay on Escherichia coli HST02 (40 mM aniline) and in the assay with Escherichia coli HST02 (60 mM aniline) were “notably inhibited”, “significantly inhibited; also recorded: significantly affected” and “completely inhibited”, respectively. Besides, in the assay on Escherichia coli HST02 (aniline level of 20 mM or higher, aerobic culture), the “growth of Escherichia coli” value is given as “greatly affected”. Moreover, the “growth of Corynebacterium glutamicum” value is “hardly affected” in assay [1] (40 mM aniline) and “able to grow” in assay [1] (60 mM aniline). In addition, in assay [1] (aniline level increased up to 60 mM, aerobic culture), the “growth of coryneform bacterium” value was “can grow”.
